{
  "source": "paper PMC4221044",
  "about": "“Antimicrobial GL13K Peptide Coatings Killed and Ruptured the Wall of Streptococcus gordonii and Prevented Formation and Growth of Biofilms” (PLoS ONE, 2014)",
  "origin": "cited, not measured here",
  "key": {"[1]": {"system": "planktonic Pseudonomas aeruginosa", "settings": "peptide in solution", "excerpt": "(§1) Functionalization of titanium surfaces with coatings made of antimicrobial agents has recently been explored to inhibit peri-implant infections. The coatings can contain nanoparticles of pure elements, [5]; sanitizing agents and disinfectants; and antibiotics as well as antimicrobial peptides. Gentamicin [7]–[9] and Vancomycin [10]–[13] have been coated on Ti surfaces for protecting from infection dental and orthopedic implants."}, "[2]": {"system": "Streptococcus gordonii", "settings": "100 µg/ml GL13K", "excerpt": "as §1"}, "[3]": {"system": "Pseudonomas aeruginosa biofilms", "settings": "100 µg/ml GL13K", "excerpt": "as §1"}},
  "data": [
    {"substance": "GKIIKLKASLKLL-NH2 [GL13K, antimicrobial peptide …-NH2 derived from the human salivary protein BPIFA2]", "values": [
      {"measurement": "MIC", "setting": "[1]", "value": 8, "unit": "µg/mL"},
      {"measurement": "bacteria killed", "setting": "[2]", "value": 100, "unit": "%"},
      {"measurement": "reduction of biofilms", "setting": "[3]", "value": "three orders of magnitude"}
    ]}
  ]
}
